Test results reported in BindingDB's records for doi:10.1074/jbc.M113.534859 (Karlsruhe Institute of Technology, 2014).

Molecular target: T1, Androgen receptor [646-919] (Human, UniProt P10275)
T1 construct: 646-919
T1 sequence (P10275 whole entry): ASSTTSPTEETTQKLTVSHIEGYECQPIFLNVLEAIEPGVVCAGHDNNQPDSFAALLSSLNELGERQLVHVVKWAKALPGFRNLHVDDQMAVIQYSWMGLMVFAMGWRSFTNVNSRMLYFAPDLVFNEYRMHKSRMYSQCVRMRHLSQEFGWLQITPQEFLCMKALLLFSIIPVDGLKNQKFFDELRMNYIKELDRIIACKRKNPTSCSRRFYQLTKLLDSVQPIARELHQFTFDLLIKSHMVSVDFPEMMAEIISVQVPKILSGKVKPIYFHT
Assay: Fluorescence Polarization Assay
Conditions: pH 6.5
Protocol: For the fluorescence polarization experiments, 5 nM fluorescently labeled Bag-1L (Bag-1L(1-20), fluorescein isothiocyanate (FITC)-[…]; Bag-1L(61-80), FITC-[…]) or SRC-2 peptide (FITC-[…]) was incubated with serially diluted AR-LBD (4 to 0.4 μM) in binding buffer (50 mM NaPO4, pH 6.5, 50 mM KCl, 1 mM DTT) and 10 μM DHT. The samples were then equilibrated for 45 min at ambient temperature. For the competition experiments, 400 to 0.4 nM Bag-1L core (GARRPR) or SRC-2 peptides ([…]) were incubated with 4 μM AR-LBD and 5 nM fluorescent Bag-1 or SRC-2 peptide. Binding was measured using polarization (excitation λ = 485 nm, emission λ = 530 nm) on a Synergy H1 hybrid reader (Biotek).

Kd [µM] | Substance
2.8 | H-HDSKGQTKLLQLLTTKSDQM-OH
2 | H-MAQRGGARRPRGDRERLGSR-OH [Bag-1L (1-20)]
3.3 | H-RGAAAGARRPRMKKKTRRRS-OH [Bag-1L (61-80)]
